Reference: ChEMBL document CHEMBL1201862, “PubChem BioAssay data set” (2004)
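Exposure lasted 48 hours, with cells grown in 96-well plates and compounds tested at five concentrations. Here, GI50 denotes the concentration required for 50% inhibition of growth.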 The source made the active and inactive calls. Rule as the data show it: active = GI50 up to about 1.1 µM and inactive = higher.

How the values were obtained:
Test in all cases: growth of human tumour cells (NCI), 48 h
A549 = test system: A549
ACHN = test system: ACHN
BT-549 = test system: BT-549
CAKI-1 = test system: CAKI-1
IGROV-1 = test system: IGROV-1
KM12 = test system: KM12
MDA-MB-435 = test system: MDA-MB-435
Malme-3M = test system: Malme-3M
NCI-H23 = test system: NCI-H23
NCI-H460 = test system: NCI-H460
NCI-H522 = test system: NCI-H522
OVCAR-3 = test system: OVCAR-3
PC-3 = test system: PC-3
SK-MEL-28 = test system: SK-MEL-28
SK-MEL-5 = test system: SK-MEL-5
U-251 = test system: U-251
UACC-62 = test system: UACC-62
SNB-19 = test system: SNB-19
SR = test system: SR

Measured: GI50

COC(=O)[C@]1(c2cc3ccccc3n2S(=O)(=O)c2ccccc2)CC2CN(C(=O)OCc3ccccc3)C1C1OC(C)(C)OC21 (stereo partly specified)
inactive: A549 23.9 µM | ACHN > 100 µM | BT-549 > 100 µM | CAKI-1 > 100 µM | IGROV-1 > 100 µM | KM12 > 100 µM | MDA-MB-435 > 100 µM | Malme-3M 2.09 µM | NCI-H23 > 100 µM | NCI-H460 > 100 µM | NCI-H522 1.31 µM | OVCAR-3 > 100 µM | PC-3 > 100 µM | SK-MEL-28 1.26 µM | SK-MEL-5 > 100 µM | U-251 > 100 µM | UACC-62 > 100 µM

CC(C)(C)[Si](C)(C)OC1CCOC1(O)c1ccccn1 (stereo unspecified)
inactive: A549 > 100 µM | ACHN > 100 µM | BT-549 > 100 µM | CAKI-1 > 100 µM | IGROV-1 > 100 µM | KM12 > 100 µM | MDA-MB-435 > 100 µM | Malme-3M > 100 µM | NCI-H23 > 100 µM | NCI-H460 > 100 µM | NCI-H522 > 100 µM | OVCAR-3 > 100 µM | PC-3 > 100 µM | SK-MEL-28 > 100 µM | SK-MEL-5 > 100 µM | SNB-19 > 100 µM | U-251 39.6 µM | UACC-62 > 100 µM

Nc1nc(-c2ccccc2)nc2c1[n+]([O-])c1ccccc1[n+]2[O-]
inactive: A549 > 100 µM | ACHN > 100 µM | BT-549 > 100 µM | CAKI-1 > 100 µM | IGROV-1 > 100 µM | KM12 > 100 µM | MDA-MB-435 > 100 µM | Malme-3M > 100 µM | NCI-H23 > 100 µM | NCI-H460 > 100 µM | NCI-H522 > 100 µM | OVCAR-3 > 100 µM | PC-3 > 100 µM | SK-MEL-28 > 100 µM | SK-MEL-5 83.4 µM | SNB-19 > 100 µM | U-251 > 100 µM | UACC-62 > 100 µM

CC1(C)Cc2c(c3ccccc3c3nc4c(nc23)c2c(c3ccccc34)OC(C)(C)C2)O1
inactive: A549 > 100 µM | ACHN > 100 µM | BT-549 > 100 µM | CAKI-1 > 100 µM | IGROV-1 > 100 µM | KM12 > 100 µM | MDA-MB-435 > 100 µM | Malme-3M > 100 µM | NCI-H23 > 100 µM | NCI-H460 > 100 µM | NCI-H522 > 100 µM | OVCAR-3 > 100 µM | PC-3 > 100 µM | SK-MEL-28 > 100 µM | SK-MEL-5 > 100 µM | SNB-19 > 100 µM | U-251 > 100 µM | UACC-62 > 100 µM

CCCn1c(C23CC4CC(CC(C4)C2)C3)nc2ccc(Cl)cc2c1=O
inactive: A549 31.2 µM | ACHN 21.2 µM | BT-549 44.2 µM | CAKI-1 30 µM | IGROV-1 51.9 µM | KM12 31.9 µM | MDA-MB-435 36.6 µM | Malme-3M > 100 µM | NCI-H23 50.5 µM | NCI-H460 36.1 µM | NCI-H522 47.2 µM | OVCAR-3 49 µM | PC-3 37.1 µM | SK-MEL-28 57.5 µM | SK-MEL-5 41.3 µM | SNB-19 49 µM | U-251 45.1 µM | UACC-62 25.9 µM

COC(=O)C1=C(C(=O)OC)C2OC1C1C2C2(C)C(C)=C(C)C1(C)[S+]2[O-] (stereo unspecified)
inactive: A549 22.3 µM | ACHN 2.83 µM | BT-549 10.4 µM | CAKI-1 4.93 µM | IGROV-1 16.7 µM | KM12 19 µM | MDA-MB-435 6.73 µM | Malme-3M 6.98 µM | NCI-H23 6.93 µM | NCI-H460 15.9 µM | NCI-H522 2.14 µM | OVCAR-3 9.02 µM | PC-3 16.1 µM | SK-MEL-28 19.1 µM | SK-MEL-5 7.62 µM | SNB-19 30.3 µM | U-251 13.8 µM | UACC-62 8.99 µM

C(=N/c1ccccc1C1SCCCS1)/c1ccccc1
inactive: A549 > 100 µM | ACHN > 100 µM | BT-549 > 100 µM | CAKI-1 > 100 µM | IGROV-1 > 100 µM | KM12 > 100 µM | MDA-MB-435 > 100 µM | Malme-3M > 100 µM | NCI-H23 > 100 µM | NCI-H460 > 100 µM | NCI-H522 > 100 µM | OVCAR-3 > 100 µM | PC-3 > 100 µM | SK-MEL-28 > 100 µM | SK-MEL-5 > 100 µM | SNB-19 > 100 µM | U-251 > 100 µM | UACC-62 > 100 µM

CCC(=O)C(c1ccccc1)c1ccccn1 (stereo unspecified)
inactive: A549 > 100 µM | ACHN > 100 µM | BT-549 > 100 µM | CAKI-1 > 100 µM | IGROV-1 > 100 µM | KM12 > 100 µM | MDA-MB-435 > 100 µM | Malme-3M > 100 µM | NCI-H23 > 100 µM | NCI-H460 > 100 µM | NCI-H522 > 100 µM | OVCAR-3 13.8 µM | PC-3 > 100 µM | SK-MEL-28 > 100 µM | SK-MEL-5 > 100 µM | SNB-19 > 100 µM | U-251 > 100 µM | UACC-62 > 100 µM

CCOC(=O)C1(C(=O)OCC)CCCN1C(=O)[C@H](CNC(=O)OC(C)(C)C)NC(=O)OCc1ccccc1
inactive: A549 > 100 µM | ACHN > 100 µM | BT-549 > 100 µM | CAKI-1 > 100 µM | IGROV-1 > 100 µM | KM12 > 100 µM | MDA-MB-435 > 100 µM | NCI-H23 > 100 µM | NCI-H460 > 100 µM | OVCAR-3 > 100 µM | PC-3 > 100 µM | SK-MEL-28 > 100 µM | SK-MEL-5 > 100 µM | SNB-19 > 100 µM | SR 51.6 µM | U-251 > 100 µM

CCOC(=O)C(CC(C)C)NC(=O)CSc1nnc(COc2ccc(Cl)cc2)n1-c1ccccc1 (stereo unspecified)
inactive: A549 21.2 µM | ACHN 13.3 µM | BT-549 17.7 µM | IGROV-1 15.4 µM | KM12 18 µM | MDA-MB-435 16.9 µM | Malme-3M 19.3 µM | NCI-H23 16 µM | NCI-H460 14.9 µM | OVCAR-3 10.5 µM | PC-3 17.1 µM | SK-MEL-28 16.7 µM | SK-MEL-5 17.1 µM | SNB-19 17.3 µM | SR 2.3 µM | U-251 19.3 µM | UACC-62 16.4 µM

O=c1oc(-c2ccc(O)cc2)cc2cc(O)ccc12
inactive: A549 41.5 µM | ACHN 34.9 µM | BT-549 23 µM | CAKI-1 29.1 µM | IGROV-1 19.9 µM | KM12 24.8 µM | MDA-MB-435 27.4 µM | Malme-3M 30.1 µM | NCI-H23 20.9 µM | NCI-H460 22.6 µM | NCI-H522 25.8 µM | OVCAR-3 27.5 µM | PC-3 25.3 µM | SK-MEL-5 11.2 µM | SNB-19 20.6 µM

NC(=O)NNC(=O)c1nc[nH]c1[N+](=O)[O-]
inactive: A549 > 100 µM | BT-549 > 100 µM | CAKI-1 > 100 µM | IGROV-1 > 100 µM | MDA-MB-435 > 100 µM | Malme-3M > 100 µM | NCI-H23 > 100 µM | NCI-H460 > 100 µM | NCI-H522 > 100 µM | OVCAR-3 > 100 µM | PC-3 > 100 µM | SK-MEL-28 > 100 µM | SK-MEL-5 > 100 µM | U-251 > 100 µM | UACC-62 > 100 µM
